Experimental data: paper PMC2363230, “Human tumour-associated cell adhesion protein MN/CA IX: identification of M75 epitope and of the region mediating cell adhesion” (British Journal of Cancer, 2000)

Assays:
[1] = system: adhesion of CGL1 cells to MN/CA IX; experiment: Inhibition of cell adhesion to MN/CA IX dots by oligopeptides added to the media with the cell suspension (Figure 4B); assay type: cell-based, human; conditions: nonapeptides 7 + 2 aa, C-terminal alanine amide, absorbance at 630 nm of stained attached cells
[2] = molecular target: T1, M75 epitope of immobilized GST-MN (Homo sapiens, UniProt Q16790); experiment: Competition ELISA, peptides binding to the epitope of immobilized GST-MN (Figure 4A); conditions: nonapeptides 7 + 2 aa, C-terminal alanine amide
T1 construct: made in house; host or cells: bacteria

[3] = system: mAb M75; experiment: Competition ELISA with mAb M75 (antigen competing for M75, Figure 3); assay type: binding; conditions: for competition in ELISA with M75 at 100 g ml-1: peptide at 100 g ml-1 (so in the source), C-terminal amide; for 50% inhibition concentration in competition ELISA with M75: GST-MN 10 ng ml-1 adsorbed, mAb M75 ascites fluid final dilution 10-6, antibody + antigen mixtures adsorbed 1.5 h, peroxidase/OPD read-out; for serological activity in competition ELISA with M75 (in words): GST-MN adsorbed, mAb M75 ascites 10-6

1: AKKMKRRKA, selected from phage display library on peptide F, eluted with M75 [compound 1]
activity in cell adhesion inhibition of phage display-selected peptides (in words) [1]: less active | activity in competition ELISA of phage display-selected peptides (in words) [2]: less active

2: AITFNAQYA, selected from phage display library on peptide F, eluted with M75 [compound 2]
activity in cell adhesion inhibition of phage display-selected peptides (in words) [1]: highest activity | activity in competition ELISA of phage display-selected peptides (in words) [2]: highest activity

3: ASASAPVSA, selected from phage display library on peptide F, eluted with M75 [compound 3]
activity in cell adhesion inhibition of phage display-selected peptides (in words) [1]: marginally posi- tive only in ELISA | activity in competition ELISA of phage display-selected peptides (in words) [2]: marginally posi- tive

ADLPGEEA [6 + 2 aa permutation]
competition in ELISA with M75 at 100 g ml-1 [3]: negative

ADLPGEEDA [oligopeptide 7 + 2 aa]
competition in ELISA with M75 at 100 g ml-1 [3]: negative

AEDLPGEA [6 + 2 aa permutation]
competition in ELISA with M75 at 100 g ml-1 [3]: negative

AEDLPGEEA [oligopeptide 7 + 2 aa]
competition in ELISA with M75 at 100 g ml-1 [3]: negative

AEEDLPGA [6 + 2 aa permutation]
competition in ELISA with M75 at 100 g ml-1 [3]: negative

AEEDLPGEA [oligopeptide 7 + 2 aa]
competition in ELISA with M75 at 100 g ml-1 [3]: negative

AGEEDLPA [6 + 2 aa permutation]
competition in ELISA with M75 at 100 g ml-1 [3]: negative

ALPGEEDA [6 + 2 aa permutation]
competition in ELISA with M75 at 100 g ml-1 [3]: negative

ALPGEEDLA [oligopeptide 7 + 2 aa]
competition in ELISA with M75 at 100 g ml-1 [3]: negative

APGEEDLA [6 + 2 aa permutation]
competition in ELISA with M75 at 100 g ml-1 [3]: negative

D: GGSSGEDDPLGEEDLPSEEDSPC (aa 51-72 of the PG region)
50% inhibition concentration in competition ELISA with M75 [3]: 1 ng/mL

EVKPKSEEEGSLKLE [Peptide G]
serological activity in competition ELISA with M75 (in words) [3]: inactive

F: EDPPGEEDLPGEEDLPGEEDLPEVC (aa 75-98 of the PG region)
50% inhibition concentration in competition ELISA with M75 [3]: 1 ng/mL

GEEDLPSEEDSPREEDPPGEEDLPGEC [Peptide E]
fold less active than peptides D and F in competition ELISA ([3]; compared with peptides D and F (50% inhibition at 1 ng ml-1)): 1000 x

N: oligopeptide 7 + 2 aa APGEEDLPA
serological activity in competition ELISA with M75 (in words) [3]: minimum serologically active sequence
